Reference: paper PMC8556396, “Statin-mediated disruption of Rho GTPase prenylation and activity inhibits respiratory syncytial virus infection” (Communications Biology, 2021)
Several values for one entry are separate records, joined by “and”; a condition that tells them apart may be missing. Equal values may be shown once.

Legend:
RSV A2 = assay: Immunofluorescence staining and microscopy of RSV F and N; conditions: for RSV F intensity (a.u.): Fig 5D; for RSV N intensity (a.u.): Fig 5E;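 as to RSV F intensity (a.u.): fluorescence normalized to total nuclear count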;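 as to RSV N intensity (a.u.): fluorescence normalized to total nuclear count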
Procedure: HEp-2 cells were seeded to No. 1 glass coverslips (1014355117NR1, Thermo Fisher Scientific) for high-resolution confocal microscopy, or black, flat, microclear-bottom 96-well plates (655096, Greiner Bio-One) for high-throughput quantification of RSV F and N immunofluorescence. Cells were infected with RSV A2 (MOI 0.5). At 48 h p.i., cells were fixed in 4% paraformaldehyde for 30 min and permeabilized with 0.3% Triton X-100 for 10 min at room temperature. F and N proteins were probed using mouse anti-RSV F (RSV3216) and mouse anti-RSV N (RSV3132) mAbs (Bio-Rad Antibodies) diluted 1:500 in PBS + 0.1% Tween-20 (PBST), or mouse anti-RSV F mAb Alexa Fluor 488 conjugate (Millipore Sigma, 133/1H) diluted 1:200 in PBST over a 1-h incubation at room temperature. This was followed by detection with secondary anti-mouse Fab fragments conjugated to Alexa Fluor 488 (4408) or 647 (4410) (Cell Signaling Technology) diluted 1:1000 in PBST over a 1-h incubation at room temperature. Fluorescent images were acquired using either the Cellomics ArrayScan VTI HCS Reader at ×10 magnification (for quantification) or Olympus IX81 Spinning Disk Confocal microscope at ×60 magnification with oil immersion (for high-resolution images). F and N immunofluorescence was quantified in CellProfiler and normalized to total nuclear count.

[1] = in vivo; cited from earlier work
[2] = FTI-276 0.5 uM, perillyl alcohol 0.5 mM
[3] = FTI-276 1 uM, perillyl alcohol 1 mM

C=C(C)[C@@H]1CC=C(CO)CC1 [Perillyl alcohol, perillyl alcohol]
RSV F intensity (a.u.) (RSV A2; [2]): 4.838 a.u. and 4.168 a.u. and 3.383 a.u. | RSV F intensity (a.u.) (RSV A2; [3]): 5.114 a.u. and 3.157 a.u. | RSV F intensity (a.u.) (RSV A2; FTI-276 5 uM, perillyl alcohol 5 mM): 0.705 a.u. and 0.8175 a.u. and 0.8487 a.u. | RSV N intensity (a.u.) (RSV A2; [2]): 6.098 a.u. and 3.977 a.u. and 5.388 a.u. and 3.797 a.u. | RSV N intensity (a.u.) (RSV A2; [3]): 3.037 a.u. and 4.82 a.u. and 2.725 a.u. and 4.829 a.u. | effect of prenyltransferase inhibitor on RSV A2 infection (RSV A2; HEp-2, F and N immunofluorescence): dose-dependently reduced RSV A2 infection | reduction of N protein intensity (RSV A2; relative to DMSO, 48 h p.i., PA 5.0 mM, EHT 1864 20.0 µM): 82.7 ± 3.3% | tolerability [1]: well-tolerated in humans
